Results taken from US9414579B2, “Systems and methods for controlling pest infestation of a woody plant” (Dow AgroSciences LLC, priority 2013, dated 2016).

Assays:
[1] = test system: Coptotermes spp.; experiment: Example II: field test on a 60 hectare oil palm plot divided into two plots, infested trees inspected monthly for 24 months; type: in vivo; conditions: for Infested Trees: plot 1 (4461 trees) liquid fipronil 2.0 ml/5 L drenching, plot 2 (4432 trees) 50 g Recruit HD per affected tree; for % Infestation: cumulative results, plot 1 fipronil, plot 2 Recruit HD
Protocol: Testing was performed to determine the effect in the field of an extruded composite member in the form of Recruit® HD, further details of which are provided in U.S. patent application Ser. No. 12/004,655, on Coptotermes spp. More particularly, a 60 hectare plot of oil palm trees was divided into two plots. The palm oil trees in each of the plots were investigated for the presence of termite activity or infestation, and the affected trees were marked accordingly. The affected trees in plot 1 were each treated with liquid fipronil (2.0 ml/5 L drenching), and the affected trees in plot 2 were each treated with a 50 g extruded composite member in the form of Recruit® HD (0.5% hexaflumuron) in a manner similar to that described above in connection with system 60. For plots 1 and 2, consumption of the extruded composite members was investigated and recorded accordingly. Post-treatment inspection of the affected trees was performed on a monthly basis for 24 months following initiation of treatment.

[2] = test system: Coptotermes spp.; experiment: Example I: field test on a 100 hectare oil palm plot, Quadrants A-D, infested trees inspected monthly for 24 months; type: in vivo; conditions: liquid fipronil 2.5 ml/5 L drenching
Protocol: Testing was performed to determine the effect in the field of an extruded composite member in the form of Recruit® HD, further details of which are provided in U.S. patent application Ser. No. 12/004,655, on Coptotermes spp. More particularly, a 100 hectare plot of oil palm trees was divided into four quadrants: Quadrants A, B, C and D. The palm oil trees in each of Quadrants A-D were investigated for the presence of termite activity or infestation, and the affected trees were marked accordingly. The affected trees in Quadrants A and C were each treated with liquid fipronil (2.5 ml/5 L drenching), and the affected trees in Quadrants B and D were each treated with a 50 g extruded composite member in the form of Recruit® HD (0.5% hexaflumuron) in a manner similar to that described above in connection with system 60. For Quadrants B and D, consumption of the extruded composite members was investigated and recorded accordingly. Post-treatment inspection of the affected trees was performed on a monthly basis for 24 months following initiation of treatment.
The results of the treatments in Quadrants A-D on a monthly basis over a 24 month period of time following initial treatment are graphically illustrated in FIG. 6.

SMILES: N#Cc1nn(-c2c(Cl)cc(C(F)(F)F)cc2Cl)c(N)c1[S+]([O-])C(F)(F)F (stereo not drawn) [Fipronil, fipronil]
- Infested Trees ([1]; 0 months (before treatment)): 100
- % Infestation ([1]; 1 year): 2.31%
- % Infestation ([1]; 2 year): 1.76%
- Infested Trees ([1]; 7 months): 75
- Infested Trees ([1]; 12 months): 80
- Infested Trees ([1]; 18 months): 60
- Infested Trees ([1]; 24 months): 35
- % Infestation ([1]; Pre-Treatment): 2.24%
- Infested Trees ([2]; Quadrant A (2246 trees), 0 months (before treatment)): 29
- Infested Trees ([2]; Quadrant A (2246 trees), 7 months): 30
- Infested Trees ([2]; Quadrant A (2246 trees), 12 months): 29
- Infested Trees ([2]; Quadrant A (2246 trees), 18 months): 20
- Infested Trees ([2]; Quadrant A (2246 trees), 24 months): 13
- Infested Trees ([2]; Quadrant C (2215 trees), 0 months (before treatment)): 71
- Infested Trees ([2]; Quadrant C (2215 trees), 7 months): 45
- Infested Trees ([2]; Quadrant C (2215 trees), 12 months): 51
- Infested Trees ([2]; Quadrant C (2215 trees), 18 months): 40
- Infested Trees ([2]; Quadrant C (2215 trees), 24 months): 22
